Experimental data taken from paper PMC12210654, “Palazestrant, a novel oral Complete Estrogen Receptor Antagonist (CERAN) and Selective Estrogen Receptor Degrader (SERD), in patients with ER+/HER2− advanced or metastatic breast cancer: phase 1/2 study results” (Breast Cancer Research : BCR, 2025).
Entries after “also recorded” stand apart in the source; their conditions may differ.

Assays:
Ki67 = Ki67 immunohistochemistry of tumor samples; format: in vivo, human; settings: cycle 3 day 1 (N = 12), all dose levels; baseline 29.2% (N = 18); P = 0.041
Description: (§1) All immunohistochemistry analyses from tumor samples were performed at ICON Central Laboratories (Farmingdale, NY, USA) using the Ventana® BenchMark ULTRA™ automated staining instrument (Oro Valley, AZ, USA). Positive- and negative-control tissue and negative reagent controls were run for each marker, as well as low-ER controls for each run. Estrogen receptor levels were estimated as the number of positive tumor nuclei divided by the total number of tumor nuclei, expressed as a percentage for each receptor type. Evaluation of Ki67 was performed in accordance with Ki67 Working Group recommendations: 1) only nuclear staining was assessed as positive; 2) in cases of tumor heterogeneity (hot spots), 2 counts were performed and the average was reported; and 3) lymphocyte-rich areas were avoided when possible. Presence of activating ESR1 mutations (amino acid regions 370–381, 460–473, and 529–538) and their mutant allele fractions (MAFs) were determined in cell-free DNA (cfDNA), collected at baseline and at 8 weeks on treatment using the SafeSEQ Breast Cancer Panel (Sysmex Inostics, Baltimore, MD, USA).
(§2) In patients who underwent biomarker testing, samples collected on cycle 3 day 1 of treatment across all dose levels were compared to baseline samples to assess changes during treatment. […]

ER [1] = tested on: ER; set-up: method as in PMID 38102750; settings: cited from earlier work
[2] = Plasma pharmacokinetics, single and multiple dose, noncompartmental; format: in vivo, human; settings: for AUC(0-t): steady-state geometric mean AUC0–24
Description: All DLT analyses (phase 1a) were performed in patients enrolled in the study during cycle 1 and who either received 75% of the planned palazestrant doses or experienced a DLT during cycle 1. All PK analyses were performed in patients who received at least 1 dose of palazestrant and had adequate postbaseline PK samples for characterization of PK parameters. All safety analyses were performed and PFS assessed in patients who received at least 1 dose of palazestrant. Clinical response (CR or PR) was assessed in patients who received at least 1 cycle of palazestrant, had measurable disease at baseline, and had at least 1 postbaseline tumor assessment. CBR was assessed in patients who received at least 1 cycle of palazestrant, had at least 1 postbaseline tumor assessment, and started their first dose at least 24 weeks before data cutoff. Patients who discontinued study treatment without radiographic progression within 24 weeks from the first dose were not included in the CBR analysis. PK parameters were estimated using conventional noncompartmental methods. For CBR, estimates were accompanied by 2-sided 95% confidence intervals (95% CIs). For PFS, Kaplan–Meier analyses were used to determine medians, event-free rates, and 95% CIs. For all other outcomes, categorical data were analyzed using frequencies and percentages, and continuous data were analyzed using means (standard deviation) or medians (range), as appropriate.
Fig. 3 Steady-State Plasma Concentration–Time Profiles for Palazestrant (30 to 300 mg QD; Phase 1a/1b/2 data). Palazestrant was administered once daily at the indicated dose. Plasma samples were collected on cycle 2, day 1, at the indicated timepoints following administration to determine plasma drug concentration. Data presented are arithmetic mean and standard deviation; the heavy dashed black line represents the target (efficacious) exposure based on estradiol-supplemented preclinical models (Cmin: 226 ng/mL). Cmin, minimum plasma concentration; QD, once daily

[3] = tested on: ESR1 wild-type and mutated human breast cancers; settings: cited from earlier work
ER [4] = tested on: ER; set-up: method as in ref 22 = [22]; 22. Hamilton E, Meisel J, Alemany C, Borges V, Lin NU, Wesolowski R, et al. Preliminary phase 1/2 results from OP-1250-001, a study of OP-1250, an oral CERAN/SERD, in patients with advanced and/or met; settings: based on estradiol-supplemented preclinical models; cited from earlier work
[5] = Dose escalation (phase 1a): dose-limiting toxicity, MTD, RP2D; format: in vivo; settings: once-daily oral doses of 30 to 300 mg/day
Description: Phase 1 of the study comprised a dose-escalation phase (1a) to identify the MTD using a rolling 6 patient dose-escalation design with 7 dose levels. Two doses of palazestrant (60 mg/day and 120 mg/day) were selected for the dose-expansion phase (1b) to further characterize the safety, PK, and preliminary antitumor activity of treatment and to establish the RP2D. Phase 2 further explored the safety and antitumor activity of palazestrant at the RP2D (120 mg/day) in patients with measurable disease (primary cohort), nonmeasurable evaluable disease (exploratory cohort), and central nervous system (CNS) metastases (exploratory cohort). […]
All DLT analyses (phase 1a) were performed in patients enrolled in the study during cycle 1 and who either received 75% of the planned palazestrant doses or experienced a DLT during cycle 1. […] All safety analyses were performed and PFS assessed in patients who received at least 1 dose of palazestrant. Clinical response (CR or PR) was assessed in patients who received at least 1 cycle of palazestrant, had measurable disease at baseline, and had at least 1 postbaseline tumor assessment. CBR was assessed in patients who received at least 1 cycle of palazestrant, had at least 1 postbaseline tumor assessment, and started their first dose at least 24 weeks before data cutoff. […]

ERα = ERα immunohistochemistry (Allred score) of tumor samples; format: in vivo, human; settings: cycle 3 day 1 (N = 12), all dose levels; baseline 6.67 (N = 18); P = 0.13
Description: as §1, §2

CCCN1CC(Oc2ccc([C@@H]3c4[nH]c5ccccc5c4C[C@@H](C)N3CC(C)(C)F)cc2)C1 [palazestrant, Palazestrant]
Ki67 levels on treatment (Ki67): 20.4%
potency in vitro relative to imlunestrant (ER [1]): greater potency in vitro
steady-state plasma concentrations versus predicted efficacy threshold (226 ng/mL) ([2]; doses of ≥ 60 mg/day (60 and 120 mg/day)): reached the predicted efficacy threshold; also recorded: above the predicted efficacy threshold
AUC(0-t) ([2]; human, in vivo, 60 mg): 4030 ng·h/mL
AUC(0-t) ([2]; human, in vivo, 120 mg): 9210 ng·h/mL
half-life ([2]; human, in vivo, 120 mg, terminal half-life): 192 h
bioavailability ([2]; human, in vivo, po): readily bioavailable
distribution ([2]; in vivo): extensive tissue distribution
dose proportionality of exposure ([2]; in vivo): dose-proportional exposure
elimination ([2]; in vivo): biphasic elimination
tumor shrinkage compared with fulvestrant and tamoxifen ([3]; preclinical xenograft models, ESR1 wild-type and mutated): greater tumor shrinkage
preclinical antitumor activity relative to fulvestrant and elacestrant ([3]; regardless of ESR1 mutation status): superior
predicted efficacy threshold, target (efficacious) exposure, Cmin (ER [4]): 226 ng/mL
maximum tolerated dose (MTD) [5]: not reached; also recorded: no MTD was identified
ERα Allred score on treatment (ERα): 5.17
